Measured values as given in patent US11136367B2, “Multi-level specific targeting of cancer cells” (Wake Forest University Health Sciences, priority 2010, dated 2021).

Assays:
[1] = biological target: T1, IL-13Rα2 receptor on GBM cells (U-251 MG) (Homo sapiens, UniProt Q14627); experiment: Colorimetric MTS/PMS cell viability assay: neutralization of IL-13.E13K-PE38QQR cytotoxicity (competition for receptor); format: cell-based
T1 construct: endogenous in cells; host or cells: U-251 MG human glioblastoma cells (ATCC)
T1 sequence (Q14627 27-380): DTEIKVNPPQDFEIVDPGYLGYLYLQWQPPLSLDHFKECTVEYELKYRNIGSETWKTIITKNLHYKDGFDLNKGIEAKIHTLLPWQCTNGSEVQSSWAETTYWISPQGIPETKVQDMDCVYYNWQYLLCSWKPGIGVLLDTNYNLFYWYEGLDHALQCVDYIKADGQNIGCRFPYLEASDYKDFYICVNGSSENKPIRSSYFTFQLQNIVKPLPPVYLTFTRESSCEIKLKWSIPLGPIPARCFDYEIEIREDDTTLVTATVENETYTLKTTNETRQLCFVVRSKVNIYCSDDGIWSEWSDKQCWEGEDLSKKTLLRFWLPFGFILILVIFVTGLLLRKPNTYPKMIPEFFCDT
Procedure: 1× 10^3 U-251 MG cells were plated per well in quadruplicates for each concentration to be tested. IL-13.E13K-PE38QQR is an IL-13Rα2 based cytotoxin against GBM (24). After 24 hours incubation at […] for the cells to attach, a fixed concentration (i.e. 1 μM) of the IL13.E13K-D2-NLS and other purified proteins were added and incubated at 37° C. for 1 hr. After 1 hr. incubation, increasing concentrations of the IL-13.E13K-PE38QQR ranging from 0.1 to 100 ng/ml was added and the plate was incubated for 48 hr. Cells treated with cyclohexamide and just the cytotoxins were used as controls. After 48 hr., cell viability was measured using the MTS [3-(4,5-dimethylthiazol-2-yl)-543-carboxymethoxyphenyl)-2-(4-sulfophenyl)-2H-tetrazolium]/PMS [phenazine methosulfate] dye (Promega, Madison, Wis.) as per the manufacturer's instructions. The absorbance from the assay was measured at 490 nm using the plate reader Spectra max 340 PC (Molecular Devices, Sunnyvale, Calif.) and data was plotted as percentage of control versus concentration of the toxin used.
To this end, we carried out a cell-viability assay in which these recombinant proteins bound to the IL-13Rα2 receptor and protected against cytotoxic action of IL-13.E13K-PE38QQR. […]

[2] = test system: IL-13Rα2 positive U-251 MG cells; experiment: Localization of biotin-conjugated proteins, tyramide signal amplification, confocal microscopy; format: cell-based, Human
Procedure: Biotin-XX microscale protein labeling kit (Invitrogen, Carlsbad, Calif.) was used to label the proteins as per the manufacturer's instructions. A different molar ratio of 12, 8 or 4 biotin-dye to the proteins was used. The biotin-labeled proteins were run on a gel and a western blot carried out using streptavidin-HR.P (Pierce, Rockford, Ill.) to detect for biotin-labeled proteins. The number of Biotin molecules attached to the proteins was determined by the Biofluoreporter assay kit (Invitrogen) as per the manufacturer's guidelines.
12,500 U-251 MG GBM cells were plated on coverslips per well in a 24-well plate. […] After the incubations, the cells were fixed with 4% paraformaldehyde (Ted Pella, Redding, Calif.) for 15 mins at 37° C. and washed with PBS 4× times. The cells were then permeabilized with 0.1% Triton-X-100/0.2% BSA-PBS for 10 min at RT. After permeabilization, the cells were washed 3 times with 1×PBS. After washings, Tyramide signal amplification kit (Invitrogen, Carlsbad, Calif.) using Alexa fluor 488 dyes and HR.P-streptavidin was carried out as per manufacturer's instructions. Topro-3 iodide (Invitrogen, Carlsbad, Calif.) was added at a concentration of 1:1000 dilution of the 1 mM stock to stain the cell nuclei. […]

[3] = test system: G48a GBM cells, which over-express IL-13Rα2; experiment: Localization of biotin-conjugated proteins in G48a GBM cells; format: cell-based
Procedure: 12,500 U-251 MG GBM cells were plated on coverslips per well in a 24-well plate. […] After the incubations, the cells were fixed with 4% paraformaldehyde (Ted Pella, Redding, Calif.) for 15 mins at 37° C. and washed with PBS 4× times. The cells were then permeabilized with 0.1% Triton-X-100/0.2% BSA-PBS for 10 min at RT. After permeabilization, the cells were washed 3 times with 1×PBS. After washings, Tyramide signal amplification kit (Invitrogen, Carlsbad, Calif.) using Alexa fluor 488 dyes and HR.P-streptavidin was carried out as per manufacturer's instructions. Topro-3 iodide (Invitrogen, Carlsbad, Calif.) was added at a concentration of 1:1000 dilution of the 1 mM stock to stain the cell nuclei. After the tyramide staining, wells were washed and mounted with gel mount (Biomeda, Foster City, Calif.) and observed with LSM 510 Zeiss Confocal Microscope (Cellular Imaging Core, Comprehensive Cancer Center, Wake Forest University) and the images processed using Zeiss LSM Image Browser (version 4.2).
We repeated the above experiments in another GBM cell line, G48a (13), which over-expresses IL-13Rα2. We obtained similar results as with the U-251 MG cells.

[4] = test system: LN229 cells, very low expressors of IL-13Rα2; experiment: Localization of biotin-labeled proteins in LN229 cells; format: cell-based, Human; conditions: 24 hr.
Procedure: 12,500 U-251 MG GBM cells were plated on coverslips per well in a 24-well plate. After 24 hr., 1 μM/well of biotin-labeled proteins was added onto the U-251 MG cells for 15 min, 4, 8 and 24 hr. After the incubations, the cells were fixed with 4% paraformaldehyde (Ted Pella, Redding, Calif.) for 15 mins at 37° C. and washed with PBS 4× times. The cells were then permeabilized with 0.1% Triton-X-100/0.2% BSA-PBS for 10 min at RT. After permeabilization, the cells were washed 3 times with 1×PBS. After washings, Tyramide signal amplification kit (Invitrogen, Carlsbad, Calif.) using Alexa fluor 488 dyes and HR.P-streptavidin was carried out as per manufacturer's instructions. Topro-3 iodide (Invitrogen, Carlsbad, Calif.) was added at a concentration of 1:1000 dilution of the 1 mM stock to stain the cell nuclei. After the tyramide staining, wells were washed and mounted with gel mount (Biomeda, Foster City, Calif.) and observed with LSM 510 Zeiss Confocal Microscope (Cellular Imaging Core, Comprehensive Cancer Center, Wake Forest University) and the images processed using Zeiss LSM Image Browser (version 4.2).
We carried out identical experiments with biotin-labeled IL-13.E13K-D2-NLS in LN229 cells, very low expressors of IL-13Rα2.

IL-13.E13K was tested, and the “protection against cytotoxic action of IL-13.E13K-PE38QQR (competition for IL-13Rα2)” value ([1]; U-251 MG cells, 1 μM protein 1 hr before 0.1 to 100 ng/ml cytotoxin, 48 hr) was “blocked the action of the cytotoxin”, the “binding of biotin-conjugated proteins to IL-13Rα2 on GBM cells” value ([1]; biotin-conjugated proteins) was “bind to the IL-13Rα2” and the subcellular localization ([2]; biotin label, 8, 4 hr and 5 min, data not shown) was “demonstrate the results observed at 24 hr”. For the same substance, the subcellular localization ([2]; biotin label, 24 hr.) was “accumulated mainly in the peri-nuclear region”, the nuclear localization ([3]; any of the time-points) was “not found to have any nuclear localization” and the subcellular localization ([3]; biotin label, 4, 8 and 24 hr.) was “cytosolic/perinuclear localization”. The subcellular localization ([3]; biotin label, 5 min) was “cell membrane binding” and the “cytosolic or perinuclear localization” value [4] was “no cytosolic or perinuclear localization”.
